Reference: paper PMC6394474, “Evaluation of the effects of formulation, food, or a proton-pump inhibitor on the pharmacokinetics of glasdegib (PF-04449913) in healthy volunteers: a randomized phase I study” (Cancer Chemotherapy and Pharmacology, 2018)
Entries after “also recorded” stand apart in the source; their conditions may differ.

Legend:
[1] = Phase I single-dose plasma pharmacokinetics of glasdegib tablet formulations in healthy volunteers (HPLC-MS/MS, noncompartmental analysis); type: in vivo, human
Excerpt: This was a Phase I, randomized, open-label, three-period, four-sequence, four-treatment study in healthy volunteers. Subjects were randomized to one of four treatment sequences (Fig. 1). All subjects received three treatments with a washout period of at least 7 days between each administration period. The duration of each administration period was 6 days with the exception of PPI treatment, which was 12 days (including 6-day follow-up after glasdegib administration).
No food was allowed for at least 4 h after glasdegib dosing.
Following a 10-h fast, subjects consumed a recommended high-fat (~ 50% of total caloric content of the meal), high-calorie meal (~ 800 to 1000 calories with 150, 250, and 500–600 calories from protein, carbohydrate, and fat, respectively).
Following a 7-day washout period, rabeprazole 40 mg was administered daily for 7 days. On the day of PK sample collection (day 7 of rabeprazole administration), both rabeprazole and glasdegib were administered in the fasted state. Rabeprazole was administered 4 h before glasdegib. […]
The primary PK endpoints were AUCinf and Cmax of glasdegib. Additional PK endpoints were AUC from time 0 to the last quantifiable concentration (AUClast), time for Cmax (Tmax), plasma elimination half-life (t½), apparent oral clearance (CL/F), and apparent volume of distribution following oral dose (Vz/F).
Glasdegib plasma concentrations were determined at Covance Bioanalytical Services (Shanghai, China) using a validated, sensitive, and specific high-performance liquid chromatography–tandem mass spectrometric (HPLC–MS/MS) method. […]
Calibration curves were linear over the range of 3–3000 ng/mL for glasdegib in plasma, using a weighted (1/concentration^2) linear regression. The lower limit of quantification (LLOQ) of glasdegib was 3 ng/mL.
Glasdegib PK parameters were calculated using noncompartmental analysis of plasma concentration–time data. […] AUClast was determined using the linear/log trapezoidal method. […] The t½ was calculated as loge(2)/Kel, CL/F was calculated as dose/AUCinf, and Vz/F was calculated as dose/(AUCinf × Kel). […]

[2] = Safety and tolerability: treatment-emergent adverse event monitoring in healthy subjects; type: in vivo, human
Procedure: Safety and tolerability of glasdegib were assessed by adverse event (AE) monitoring and changes in clinical laboratory results, ECGs, and physical examination findings. AEs were graded according to the Medical Dictionary for Regulatory Activities version 20.0.

[3] = design: method as in PMID 24900436; details: unpublished; cited from earlier work
[4] = weakly basic drug; higher solubility at acidic pH; cited from earlier work
[5] = design: method as in PMID 29086063; details: early maleate-salt tablet formulations, in the presence of PPIs, single 100-mg oral dose; cited from earlier work
Hedgehog pathway = test system: Hedgehog pathway; design: method as in PMID 28556364; details: 50 mg QD dose; skin; cited from earlier work
[6] = in the presence of a PPI (rabeprazole) vs fasted alone

**Q.** What does the source list for `CN1CC[C@@H](NC(=O)Nc2ccc(C#N)cc2)C[C@@H]1c1nc2ccccc2[nH]1` [glasdegib]?
**A.** decrease in geometric mean AUCinf ([1]; high-fat, high-calorie meal vs fasted, single 100 mg oral dose): 16%; change in geometric mean AUCinf [1, 6]: did not result in a change; decrease in geometric mean Cmax [1, 6]: ~ 20%; deaths, serious AEs, severe AEs, dose reductions, discontinuations due to AEs ([2]; all treatment arms): no deaths, serious AEs, severe AEs, dose reductions, or permanent/temporary discontinuations due to AEs; TEAEs reported across all treatment arms ([2]; human, in vivo): 17; gastrointestinal disorders, share of all TEAEs ([2]; human, in vivo): 35%; severity of observed TEAEs ([2]; human, in vivo): mild; subjects with TEAEs across all treatment arms ([2]; human, in vivo): 12; Biopharmaceutical Classification System class [3]: II or IV; solubility (pH-dependent) [4]: drops substantially at pH ≥ 6.3; also recorded: decreasing solubility as pH increases; decrease in Cmax [5]: 13%; increase in AUCinf [5]: 12%; downregulation of the Hedgehog pathway (Hedgehog pathway): consistent downregulation
